From patent publication US11000033B2, “Ketone or oxime compound, and herbicide” (NISSAN CHEMICAL CORPORATION, priority 2014, dated 2021)

Columns and labels:
Assay type in all cases: in vivo
[1] = system: directly sowed rice plant; experiment: Test Example 3: effect on crop by foliage application, Wagner pot (symbol b); details: application herbicide amount 320 g/ha
Summary of the method: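 Greenhouse culture at 25–30 °C of seeded rice, Cyperus difformis, Leptochloa chinensis and Echinochloa crus-galli var. crus-galli, in alluvial soil held under 0.1–0.5 cm of water in a Wagner pot.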

Leptochloa chinensis = experiment: Test Example 3: herbicidal effect by foliage application, Wagner pot (symbol D); details: application herbicide amount 320 g/ha
Summary of the method: (§1)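 In a shallow-flooded alluvial soil system held at 25–30 °C, plants including rice grew for 14 days and were then sprayed over the foliage with emulsion diluted to a fixed herbicide amount. Visual rating followed at 3 weeks.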

wheat = experiment: Test Example 4: effect on crop by soil treatment (symbol e); details: application herbicide amount 320 g/ha
Summary of the method: (§2)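 Crop seed is sown in spots together with several weed species in a box of sterilized diluvial soil. It is covered by about 1.5 cm of soil and kept in a greenhouse held between 25° C. and 30° C.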

Cyperus difformis = experiment: Test Example 3: herbicidal effect by foliage application, Wagner pot (symbol E); details: application herbicide amount 320 g/ha
Summary of the method: as §1

rice = experiment: Test Example 4: effect on crop by soil treatment (symbol b); details: application herbicide amount 320 g/ha
Summary of the method: as §2

[2] = system: Echinochloa oryzacola Vasing.; experiment: Test Example 2: herbicidal activity, application during weed generation in submerged conditions (symbol A); details: Table 23; application herbicide amount 320 g/ha; grade 0-5 by criteria of Test Example 1
Summary of the method: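 Compound was applied as a water-diluted emulsion into the standing water of flooded pots (4 cm) once co-sown weeds reached one to two leaves. Greenhouse temperature was 25° C. to 30° C., soil was alluvial, and each species was rated visually after 3 weeks.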

Amaranthus retroflexus = experiment: Test Example 4: herbicidal effect by soil treatment (symbol N); details: application herbicide amount 320 g/ha
Summary of the method: (§3)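 Seeds were sown in sterilized diluvial soil, covered with about 1.5 cm of soil, and the soil surface was sprayed with a water-diluted emulsion of the compound at a predetermined rate. Plants grew in a greenhouse at 25° C. to 30° C.; effects were scored visually 3 weeks after application.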

Chenopodium album = experiment: Test Example 5: herbicidal effect by foliage application, plastic box (symbol O); details: 320 g/ha, 3 weeks after application
Summary of the method: (§4)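 Herbicide, formulated as an emulsion and diluted in water, is sprayed onto the aerial parts of 14-day seedlings. These were grown at 25° C. to 30° C. in sterilized diluvial soil; effects are graded after 3 weeks.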

Lolium multiflorum Lam. = experiment: Test Example 4: herbicidal effect by soil treatment (symbol K); details: application herbicide amount 320 g/ha
Summary of the method: as §3

Setaria viridis = experiment: Test Example 4: herbicidal effect by soil treatment (symbol G); details: application herbicide amount 320 g/ha
Summary of the method: as §3

Abutilon theophrasti = experiment: Test Example 4: herbicidal effect by soil treatment (symbol M); details: application herbicide amount 320 g/ha
Summary of the method: as §3

Stellaria media = experiment: Test Example 5: herbicidal effect by foliage application, plastic box (symbol P); details: 320 g/ha, 3 weeks after application
Summary of the method: as §4

Avena fatua [3] = experiment: Test Example 5: herbicidal effect by foliage application, plastic box (symbol I); details: 320 g/ha, 3 weeks after application
Summary of the method: as §4

corn = experiment: Test Example 5: effect on crop by foliage application, plastic box (symbol c); details: 320 g/ha, 3 weeks after application
Summary of the method: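 Foliage-application test plants come from spot sowing in sterilized diluvial soil under a soil layer of about 1.5 cm, grown at 25° C. to 30° C. in a greenhouse.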

Avena fatua [4] = experiment: Test Example 4: herbicidal effect by soil treatment (symbol I); details: application herbicide amount 320 g/ha
Summary of the method: as §3

Alopecurus myosuroides = experiment: Test Example 4: herbicidal effect by soil treatment (symbol J); details: application herbicide amount 320 g/ha
Summary of the method: as §3

Compound | effect on crop b (directly sowed rice plant), grade 0-5 [1] | herbicidal effect on D (Leptochloa chinensis), grade 0-5 (Leptochloa chinensis) | herbicidal effect on E, grade 0-5 (Cyperus difformis) | Herbicidal effect grade, A: Echinochloa oryzacola Vasing. [2] | O: Chenopodium album, herbicidal effect grade (Chenopodium album) | P: Stellaria media, herbicidal effect grade (Stellaria media) | I: Avena fatua, herbicidal effect grade (Avena fatua [3]) | c: corn, effect on crop grade (corn) | e: wheat, effect on crop grade (wheat) | b: directly sowed rice plant, effect on crop grade (rice) | N: Amaranthus retroflexus, herbicidal effect grade (Amaranthus retroflexus) | K: Lolium multiflorum Lam., herbicidal effect grade (Lolium multiflorum Lam.) | G: Setaria viridis, herbicidal effect grade (Setaria viridis) | M: Abutilon theophrasti, herbicidal effect grade (Abutilon theophrasti) | I: Avena fatua, herbicidal effect grade (Avena fatua [4]) | J: Alopecurus myosuroides, herbicidal effect grade (Alopecurus myosuroides) | further results
CC(CC1CC(O)=C(c2c(C)cc(C)cc2C)C1=O)=NOCc1ccccn1 (stereo not shown) [1-022] | 5 (Herbicidal ratio of 90% or more (almost completely withered)) | 5 (Herbicidal ratio of 90% or more (almost completely withered)) | 4 (Herbicidal ratio of 70% or higher and lower than 90%) | 4 (Herbicidal ratio of 70% or higher and lower than 90%) | 3 (Herbicidal ratio of 40% or higher and lower than 70%) | 3 (Herbicidal ratio of 40% or higher and lower than 70%) | 5 (Herbicidal ratio of 90% or more (almost completely withered)) | 3 (Herbicidal ratio of 40% or higher and lower than 70%) | – | – | – | – | – | – | – | – | e (wheat) effect on crop grade (wheat): 4 (Herbicidal ratio of 70% or higher and lower than 90%); b (directly sowed rice plant) effect on crop grade (rice): 5 (Herbicidal ratio of 90% or more (almost completely withered)); N (Amaranthus retroflexus) herbicidal effect grade (Amaranthus retroflexus): 0 (Herbicidal ratio of 5% or lower (almost no effect)); K (Lolium multiflorum Lam.) herbicidal effect grade (Lolium multiflorum Lam.): 5 (Herbicidal ratio of 90% or more (almost completely withered)); G (Setaria viridis) herbicidal effect grade (Setaria viridis): 3 (Herbicidal ratio of 40% or higher and lower than 70%); M (Abutilon theophrasti) herbicidal effect grade (Abutilon theophrasti): 0 (Herbicidal ratio of 5% or lower (almost no effect)); I (Avena fatua) herbicidal effect grade (Avena fatua [4]): 4 (Herbicidal ratio of 70% or higher and lower than 90%); J (Alopecurus myosuroides) herbicidal effect grade (Alopecurus myosuroides): 5 (Herbicidal ratio of 90% or more (almost completely withered))
CON=C(C)C(=O)C1CC(O)=C(c2c(C)cc(C)cc2C)C1=O (stereo not shown) [8-002] | – | – | – | 0 (Herbicidal ratio of 5% or lower (almost no effect)) | 0 (Herbicidal ratio of 5% or lower (almost no effect)) | 0 (Herbicidal ratio of 5% or lower (almost no effect)) | 3 (Herbicidal ratio of 40% or higher and lower than 70%) | 0 (Herbicidal ratio of 5% or lower (almost no effect)) | – | – | – | – | – | – | – | – | b (directly sowed rice plant) effect on crop grade ([1]; Table 24): 0 (Herbicidal ratio of 5% or lower (almost no effect)); D (Leptochloa chinensis) herbicidal effect grade (Leptochloa chinensis; Table 24): 0 (Herbicidal ratio of 5% or lower (almost no effect)); Effect on crop grade, e: wheat (wheat): 0 (Herbicidal ratio of 5% or lower (almost no effect)); E herbicidal effect grade (Cyperus difformis; Table 24): 0 (Herbicidal ratio of 5% or lower (almost no effect)); Effect on crop grade, b: directly sowed rice plant (rice): 0 (Herbicidal ratio of 5% or lower (almost no effect)); Herbicidal effect grade, N: Amaranthus retroflexus (Amaranthus retroflexus): 0 (Herbicidal ratio of 5% or lower (almost no effect)); Herbicidal effect grade, K: Lolium multiflorum Lam. (Lolium multiflorum Lam.): 0 (Herbicidal ratio of 5% or lower (almost no effect)); Herbicidal effect grade, G: Setaria viridis (Setaria viridis): 0 (Herbicidal ratio of 5% or lower (almost no effect)); Herbicidal effect grade, M: Abutilon theophrasti (Abutilon theophrasti): 0 (Herbicidal ratio of 5% or lower (almost no effect)); Herbicidal effect grade, I: Avena fatua (Avena fatua [4]): 0 (Herbicidal ratio of 5% or lower (almost no effect)); Herbicidal effect grade, J: Alopecurus myosuroides (Alopecurus myosuroides): 0 (Herbicidal ratio of 5% or lower (almost no effect))
CON=C(C)CC1CC(O)=C(c2c(C)cc(OCc3ccncc3)cc2C)C1=O (mixture of isomers) [6-053] | 5 (Herbicidal ratio of 90% or more (almost completely withered)) | 5 (Herbicidal ratio of 90% or more (almost completely withered)) | 3 (Herbicidal ratio of 40% or higher and lower than 70%) | 3 (Herbicidal ratio of 40% or higher and lower than 70%) | 0 (Herbicidal ratio of 5% or lower (almost no effect)) | 0 (Herbicidal ratio of 5% or lower (almost no effect)) | 3 (Herbicidal ratio of 40% or higher and lower than 70%) | 2 (Herbicidal ratio of 20% or higher and lower than 40%) | 0 (Herbicidal ratio of 5% or lower (almost no effect)) | 2 (Herbicidal ratio of 20% or higher and lower than 40%) | 0 (Herbicidal ratio of 5% or lower (almost no effect)) | 0 (Herbicidal ratio of 5% or lower (almost no effect)) | 3 (Herbicidal ratio of 40% or higher and lower than 70%) | 0 (Herbicidal ratio of 5% or lower (almost no effect)) | 1 (Herbicidal ratio of 5% or higher and lower than 20%) | 0 (Herbicidal ratio of 5% or lower (almost no effect)) | –
CON=C(C)CC1CC(O)=C(c2c(C)cc(C3CC3)cc2C)C1=O (stereo not shown) [6-050] | 5 (Herbicidal ratio of 90% or more (almost completely withered)) | 5 (Herbicidal ratio of 90% or more (almost completely withered)) | 5 (Herbicidal ratio of 90% or more (almost completely withered)) | 3 (Herbicidal ratio of 40% or higher and lower than 70%) | 3 (Herbicidal ratio of 40% or higher and lower than 70%) | 3 (Herbicidal ratio of 40% or higher and lower than 70%) | 2 (Herbicidal ratio of 20% or higher and lower than 40%) | 4 (Herbicidal ratio of 70% or higher and lower than 90%) | 0 (Herbicidal ratio of 5% or lower (almost no effect)) | 5 (Herbicidal ratio of 90% or more (almost completely withered)) | 0 (Herbicidal ratio of 5% or lower (almost no effect)) | 5 (Herbicidal ratio of 90% or more (almost completely withered)) | 4 (Herbicidal ratio of 70% or higher and lower than 90%) | 0 (Herbicidal ratio of 5% or lower (almost no effect)) | 2 (Herbicidal ratio of 20% or higher and lower than 40%) | 4 (Herbicidal ratio of 70% or higher and lower than 90%) | –
